Reference: patent US4994450A, “Azacyclic compounds and their use as analgesic agents” (Dr. Lo. Zambeletti S.p.A., priority 1988, dated 1991)
Structures can show the parent of a compound that is named as a salt.

Key:
[1] = tested on: mice; assay: Tail-flick test in mice; assay type: in vivo, mouse (male Charles River, Swiss Strain); settings: subcutaneous, 30 min pretreatment
Protocol: (B) Tail-flick test in mice
The methodology employed is based on that described by D'Amour and Smith, J. Pharmacol. Exp. Ther. 72. 74/1941.
Male Charles River mice (Swiss Strain), 22-34g body weight were used. Animals were allowed food and water ad libitum and were randomized into groups of 10 prior to experimentation.
Test compounds were dissolved in either distilled water or distilled water plus 0.1 M AMS and administered by the subcutaneous route in a final volume of 10 ml/Kg. Control animals received 10 ml/kg of the appropriate vehicle alone. Following a pretreatment period of 30 min., the mice were again placed under the heat source and the reaction tine re-determined.
Percentage quantal protection was determined as the number of mice in which the reaction time was doubled compared to pretreatment values, expressed as a percentage of the total number of mice in the group.

[2] = target: T1, Kappa opiate receptor (spinal cord) (Cavia porcellus, UniProt P41144); assay: Opiate receptor binding, kappa (spinal cord)
T1 construct: spinal cord kappa-receptors; from tissue
Protocol: (§1) The binding to the K-sites is performed using ^3 H-Ethyl Ketocyclazocine, a non-selective benzomorphan compound which binds to μ, δ and K-sites, in the presence of 100nM of unlabelled DAGO and 100nM of the enkephalin analogue [DAla^2 -DLeu^5 ]Enkephalin (DADLE), to prevent μ and δ binding respectively.
Final homogenate with solutions of the cold ligand and of the labelled ligand is incubated for 40 min. at 25° C., filtered through Whatman GF/C glass filter discs and washed.
(§2) The radioactivity bound to the filters is counted by liquid scintillation spectrophotometry.
(§3) The non-specific binding is determined in the presence of 500nM of the benzomorphan non-selective compound Mr 2266.
(§4) The equilibrium dissociation constant (KD) and the maximum binding capacity (Bmax) are determined from the analysis of saturation curves, while the inhibition constant (Ki) is determined from the analysis of competition experiments (Hill 1910; Scatchard 1949; Cheng and Prusoff 1973; Gillan et al. 1980) Published references are summarised as follows: […]

[3] = target: T2, Mu opiate receptor (brain) (Cavia porcellus, UniProt A0ACM8Q262); assay: Opiate receptor binding, mu (brain); parameters: species or system guinea pig; settings: 3H-DAGO, 40 min, 25° C.
T2 construct: [3H]DAGO (DAMGO) displacement
Protocol: (§5) Radio receptor binding to μ and K sites is performed on fresh guinea pig brain homogenate prepared according to Kosterlitz. (1981).
(§6) Whole brain without cerebellum is homogenized in 50 mM, Tris-buffer (pH 7.4 at 0° C.) and centrifuged at 49,000×g×10 min.
(§7) The pellet is then resuspended in the same buffer, incubated at 37° C. for 45 min. and centrifuged again.
(§8) 1.9 ml of the final homogenate (1:100 in Tris-pH 7.4, 0° C.) is used for the binding assay.
^3 H [D-Ala^2, MePhe^4, Gly-ol^5 ] Enkephalin (^3 H-DAGO), an enkephalin analogue that binds selectively to μ receptor, is added to the biological substrate and incubated at 25° C. for 40 min., filtered through Whatman GF-C and washed with ice-cold Tris-buffer.
The filters are then dryed, solubilized in Filtercount and the radioactivity monitored. Non specific binding is determined in the presence of 10^-6 M Naloxone.
as §4

[4] = tested on: mice; assay: P-phenylquinone-induced abdominal writhing test in mice; assay type: in vivo, mouse (male Charles River, Swiss Strain); settings: Mus musculus, sc; subcutaneous, 20 min pretreatment, p-phenylquinone 2 mg/Kg i.p.
Protocol: (A) P-phenylquinone-induced abdominal writing test in mice
The methodology employed is based on that described by Sigmund et al, Proc. Soc. Exptl. Biol. 95, 729/1957, modified by Milne and Twomey, Agents and Actions, 10, 31/1980.
Male Charles River mice (Swiss Strain), 25-36g body weight, were used. Animals were allowed food and water ad libitum and were randomized into groups of 10 prior to experimentation. Test compounds were dissolved in either distilled water or distilled water plus 0.1 M AMS, and administered by the subcutaneous route in a final volume of 10 ml/Kg. Control animals received 10 ml/Kg of the appropriate vehicle alone. Following a pretreatment period of 20 min., mice were injected intraperitoneally with p-phenylquinone, 2 mg/Kg at 37° C. in a final volume of […]. […] During this period the number of abdominal writhing responses per animal were recorded where writhing consists of an intermittent contraction of the abdomen associated with hind leg extension.
The degree of antinociceptive protection afforded by the test compound was determined as the mean number of writhing responses observed in the treated group (T) expressed as a percentage of the mean number of writhing responses in the control group (C) according to the following formula:
[1-(T/C]×100%=% graded protection

[5] = target: T3, Kappa opiate receptor (brain) (Cavia porcellus, UniProt P41144); assay: Opiate receptor binding, kappa (brain); parameters: species or system guinea pig
T3 construct: performed on fresh guinea pig brain homogenate; from tissue; host or cells: guinea pig whole brain without cerebellum, homogenate
Protocol: as §5, §6, §7, §8
as §1, with “respectively. […]” for “respectively.”
as §2, §3, §4

T2 sequence (A0ACM8Q262 1-400): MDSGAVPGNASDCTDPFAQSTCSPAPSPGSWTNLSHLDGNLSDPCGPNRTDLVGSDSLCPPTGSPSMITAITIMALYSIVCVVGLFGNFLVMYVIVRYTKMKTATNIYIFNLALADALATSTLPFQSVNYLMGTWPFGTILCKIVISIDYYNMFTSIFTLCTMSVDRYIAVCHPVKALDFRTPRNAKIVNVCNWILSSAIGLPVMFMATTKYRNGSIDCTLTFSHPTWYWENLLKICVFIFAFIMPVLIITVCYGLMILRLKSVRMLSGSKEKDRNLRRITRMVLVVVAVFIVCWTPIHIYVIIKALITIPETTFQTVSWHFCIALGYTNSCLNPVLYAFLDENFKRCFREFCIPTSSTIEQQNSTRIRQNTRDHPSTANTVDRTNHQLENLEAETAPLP
T1 sequence (P41144 whole entry): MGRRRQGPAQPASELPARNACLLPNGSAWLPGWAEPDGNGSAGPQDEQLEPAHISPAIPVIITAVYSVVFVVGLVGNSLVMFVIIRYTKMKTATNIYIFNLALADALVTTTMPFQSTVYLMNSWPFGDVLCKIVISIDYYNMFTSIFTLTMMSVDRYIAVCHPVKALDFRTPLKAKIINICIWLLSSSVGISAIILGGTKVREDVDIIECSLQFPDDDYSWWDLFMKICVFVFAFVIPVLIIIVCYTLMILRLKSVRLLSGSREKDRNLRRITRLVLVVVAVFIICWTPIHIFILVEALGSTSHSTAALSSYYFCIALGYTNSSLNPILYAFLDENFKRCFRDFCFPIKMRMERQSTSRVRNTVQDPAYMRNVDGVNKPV
T3 sequence (P41144 whole entry): as above

## O=C1CCCc2cc(CC(=O)N3CCCCC3CN3CCCC3)ccc21 (stereo not drawn) [Example 1, 1-[1-oxo-3,4,-dihydro-(2H)-naphth-6-yl]acetyl-2-(pyrrolidin-1-yl)methyl-piperidine hydrochloride]
[1]; dose 0.550 mg/kg
  MOUSE TAIL-FLICK % Analgesia: 50%
[2]
  Ki: 5.24 nM
[3]
  Ki: > 1000 nM
[4]
  ED50: 0.235 mg/kg
[5]
  Ki: 81.7 nM

## O=C1CCCc2cc(CC(=O)N3CCCC[C@H]3CN3CCCC3)ccc21 [Example 2, (2S)-1-[1-oxo-3,4,-dihydro-(2H)-naphth-6-yl]acetyl-2-(pyrrolidin-1-yl)methyl-piperidine hydrochloride]
[1]; dose 0.233 mg/kg
  MOUSE TAIL-FLICK % Analgesia: 50%
[2]
  Ki: 2.21 nM
[3]
  Ki: 2980 nM
[4]
  ED50: 0.138 mg/kg
[5]
  Ki: 49 nM

## CC(=O)c1ccc(CC(=O)N2CCCC[C@H]2CN2CCCC2)cc1C [Example 4, (2S)-1-(3-methyl-4-acetylphenyl)acetyl-2-(pyrrolidin-1-yl)methyl-piperidinehydrochloride hydrate]
[1]; dose 8.6 mg/kg
  MOUSE TAIL-FLICK % Analgesia: 80%

## O=C1CCCc2ccc(CC(=O)N3CCCC[C@H]3CN3CCCC3)cc21 [Example 6, (2S)-1-[1-oxo-3,4-dihydro-(2H)-naphth-7-yl] acetyl-2-(pyrrolidin-1-yl)methyl-piperidine hydrochloride]
[1]; dose 10 mg/kg
  MOUSE TAIL-FLICK % Analgesia: 80%
